# Laboratory results published in ChEMBL document CHEMBL3769371, “1-[(2E)-3-Phenylprop-2-enoyl]-1H-benzimidazoles as anticancer agents: synthesis, crystal structure analysis and binding studies of the most potent anticancer molecule with serum albumin” (Medchemcomm, 2015).
# What was measured:
# [1] = Cytotoxicity against human MOLT4 cells assessed as cell growth at 10^-5 M after 48 hrs by SRB assay; format: functional; details: MOLT-4, 48 h, read-out: Activity
# A549 = test: Cytotoxicity against human A549 cells assessed as cell growth at 10^-5 M after 48 hrs by SRB assay; format: functional; details: A549, 48 h, read-out: Activity
# [2] = Cytotoxicity against human HOP62 cells assessed as cell growth at 10^-5 M after 48 hrs by SRB assay; format: functional; details: HOP-62, 48 h, read-out: Activity
# [3] = Cytotoxicity against human COLO205 cells assessed as cell growth at 10^-5 M after 48 hrs by SRB assay; format: functional; details: COLO 205, 48 h, read-out: Activity
# [4] = Cytotoxicity against human HCT15 cells assessed as cell growth at 10^-5 M after 48 hrs by SRB assay; format: functional; details: HCT-15, 48 h, read-out: Activity
# [5] = Cytotoxicity against human SF539 cells assessed as cell growth at 10^-5 M after 48 hrs by SRB assay; format: functional; details: SF-539, 48 h, read-out: Activity
# Malme-3M = test: Cytotoxicity against human MALME-3M cells assessed as cell growth at 10^-5 M after 48 hrs by SRB assay; format: functional; details: read-out: Activity
# M14 = test: Cytotoxicity against human M14 cells assessed as cell growth at 10^-5 M after 48 hrs by SRB assay; format: functional; details: M14, 48 h, read-out: Activity
# [6] = Cytotoxicity against human IGROV1 cells assessed as cell growth at 10^-5 M after 48 hrs by SRB assay; format: functional; details: IGROV-1, 48 h, read-out: Activity
# [7] = Cytotoxicity against human OVCAR5 cells assessed as cell growth at 10^-5 M after 48 hrs by SRB assay; format: functional; details: OVCAR-5, 48 h, read-out: Activity
# [8] = Cytotoxicity against human OVCAR8 cells assessed as cell growth at 10^-5 M after 48 hrs by SRB assay; format: functional; details: OVCAR-8, 48 h, read-out: Activity
# [9] = Cytotoxicity against human NCI-ADR-RES cells assessed as cell growth at 10^-5 M after 48 hrs by SRB assay; format: functional; details: read-out: Activity
# [10] = Cytotoxicity against human Caki1 cells assessed as cell growth at 10^-5 M after 48 hrs by SRB assay; format: functional; details: CAKI-1, 48 h, read-out: Activity
# [11] = Cytotoxicity against human PC3 cells assessed as cell growth at 10^-5 M after 48 hrs by SRB assay; format: functional; details: PC-3, 48 h, read-out: Activity
# MCF7 [12] = test: Cytotoxicity against human MCF7 cells assessed as cell growth at 10^-5 M after 48 hrs by SRB assay; format: functional; details: MCF7, 48 h, read-out: Activity
# CCRF-CEM = test: Cytotoxicity against human CCRF-CEM cells after 48 hrs by SRB assay; format: functional
# K562 = test: Cytotoxicity against human K562 cells after 48 hrs by SRB assay; format: functional; details: K562, 48 h
# NCI-H522 = test: Cytotoxicity against human NCI-H522 cells after 48 hrs by SRB assay; format: functional; details: NCI-H522, 48 h
# [13] = Cytotoxicity against human COLO205 cells after 48 hrs by SRB assay; format: functional; details: COLO 205, 48 h
# HT-29 = test: Cytotoxicity against human HT-29 cells after 48 hrs by SRB assay; format: functional; details: HT-29, 48 h
# [14] = Cytotoxicity against human SNB19 cells after 48 hrs by SRB assay; format: functional; details: SNB-19, 48 h
# U-251 = test: Cytotoxicity against human U251 cells after 48 hrs by SRB assay; format: functional; details: U-251, 48 h
# MDA-MB-435 = test: Cytotoxicity against human MDA-MB-435 cells after 48 hrs by SRB assay; format: functional; details: MDA-MB-435, 48 h
# SK-MEL-2 = test: Cytotoxicity against human SK-MEL-2 cells after 48 hrs by SRB assay; format: functional; details: SK-MEL-2, 48 h
# [15] = Cytotoxicity against human UACC257 cells after 48 hrs by SRB assay; format: functional; details: UACC-257, 48 h
# [16] = Cytotoxicity against human OVCAR3 cells after 48 hrs by SRB assay; format: functional; details: OVCAR-3, 48 h
# [17] = Cytotoxicity against human NCI-ADR-RES cells after 48 hrs by SRB assay; format: functional
# [18] = Cytotoxicity against human RXF393 cells after 48 hrs by SRB assay; format: functional; details: RXF 393, 48 h
# [19] = Cytotoxicity against human UO31 cells after 48 hrs by SRB assay; format: functional; details: UO-31, 48 h
# [20] = Cytotoxicity against human PC3 cells after 48 hrs by SRB assay; format: functional; details: PC-3, 48 h
# [21] = Cytotoxicity against human Hs 578T cells after 48 hrs by SRB assay; format: functional
# [22] = Cytotoxicity against human BT549 cells after 48 hrs by SRB assay; format: functional; details: BT-549, 48 h
# Albumin [23] = molecular target: T1, Albumin (Homo sapiens, UniProt P02768); test: Binding affinity to human serum albumin at 0.25 to 2 uM at 298 K by fluorescence microscopic analysis; format: ADME; details: isolated protein
# T1 sequence (P02768 whole entry): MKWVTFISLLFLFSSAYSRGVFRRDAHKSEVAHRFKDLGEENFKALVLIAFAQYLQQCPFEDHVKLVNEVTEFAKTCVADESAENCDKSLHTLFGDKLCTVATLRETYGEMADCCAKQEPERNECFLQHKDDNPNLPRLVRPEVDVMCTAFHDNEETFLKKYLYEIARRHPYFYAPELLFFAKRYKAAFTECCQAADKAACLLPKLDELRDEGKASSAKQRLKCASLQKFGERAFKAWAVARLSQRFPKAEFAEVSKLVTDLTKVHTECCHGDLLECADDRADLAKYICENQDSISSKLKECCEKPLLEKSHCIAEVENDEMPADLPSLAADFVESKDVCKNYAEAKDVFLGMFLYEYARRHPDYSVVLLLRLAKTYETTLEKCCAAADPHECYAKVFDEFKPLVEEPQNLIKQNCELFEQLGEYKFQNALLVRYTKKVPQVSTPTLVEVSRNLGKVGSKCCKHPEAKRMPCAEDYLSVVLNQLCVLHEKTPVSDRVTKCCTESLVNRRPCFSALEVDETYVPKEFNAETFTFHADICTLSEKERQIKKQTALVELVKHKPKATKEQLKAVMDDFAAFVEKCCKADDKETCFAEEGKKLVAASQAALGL
# Albumin [24] = molecular target: T1, Albumin; test: Binding affinity to human serum albumin at 0.25 to 2 uM at 303 K by fluorescence microscopic analysis in the absence of site probes; format: ADME; details: isolated protein
# Albumin [25] = molecular target: T1, Albumin; test: Binding affinity to human serum albumin at 0.25 uM at 303 K by fluorescence microscopic analysis in the presence of Cu2+; format: ADME; details: isolated protein
# MCF7 [26] = test: Antiproliferative activity against human MCF7 cells at 10'5 M; format: functional
# [27] = Antiproliferative activity against human MOLT4 cells at 10'5 M; format: functional, MOLT-4
# NCI-H460 = test: Antiproliferative activity against human NCI-H460 cells at 10'5 M; format: functional
# [28] = Antiproliferative activity against human SKOV3 cells at 10'5 M; format: functional, SK-OV-3
# [29] = Antiproliferative activity against human SNB75 cells at 10'5 M; format: functional, SNB-75
# [30] = read-out: LC50 (the source's name)
smiles,measurement,setting,value
O=C(/C=C/c1ccccc1)n1c(-c2ccc(Cl)cc2)nc2ccccc21,growth at 10 µM,[1],21.9%
same,growth at 10 µM,A549,-4.99%
same,growth at 10 µM,[2],-48.8%
same,growth at 10 µM,[3],-60.8%
same,growth at 10 µM,[4],-24.8%
same,growth at 10 µM,[5],-48.4%
same,growth at 10 µM,Malme-3M,15.9%
same,growth at 10 µM,M14,-37.3%
same,growth at 10 µM,[6],10.4%
same,growth at 10 µM,[7],-48.1%
same,growth at 10 µM,[8],-31.3%
same,growth at 10 µM,[9],10.8%
same,growth at 10 µM,[10],-39.5%
same,growth at 10 µM,[11],6.09%
same,growth at 10 µM,MCF7 [12],10.3%
same,GI50,CCRF-CEM,0.73 µM
same,TGI,CCRF-CEM,3.45 µM
same,CC50,CCRF-CEM; [30],> 100 µM
same,GI50,K562,2.09 µM
same,TGI,K562,11.8 µM
same,CC50,K562; [30],> 100 µM
same,GI50,NCI-H522,1.53 µM
same,TGI,NCI-H522,3.5 µM
same,CC50,NCI-H522; [30],8.04 µM
same,GI50,[13],1.23 µM
same,TGI,[13],2.64 µM
same,CC50,[13]; [30],5.65 µM
same,GI50,HT-29,1.34 µM
same,TGI,HT-29,7.05 µM
same,CC50,HT-29; [30],29.8 µM
same,GI50,[14],1.47 µM
same,TGI,[14],2.92 µM
same,CC50,[14]; [30],5.79 µM
same,GI50,U-251,1.44 µM
same,TGI,U-251,3.77 µM
same,CC50,U-251; [30],9.91 µM
same,GI50,MDA-MB-435,1.9 µM
same,TGI,MDA-MB-435,5.05 µM
same,CC50,MDA-MB-435; [30],19.6 µM
same,GI50,SK-MEL-2,1.11 µM
same,TGI,SK-MEL-2,3.04 µM
same,CC50,SK-MEL-2; [30],8.32 µM
same,GI50,[15],1.64 µM
same,TGI,[15],3.12 µM
same,CC50,[15]; [30],5.93 µM
same,GI50,[16],1.95 µM
same,TGI,[16],4.63 µM
same,CC50,[16]; [30],13.4 µM
same,GI50,[17],0.75 µM
same,TGI,[17],10.3 µM
same,CC50,[17]; [30],62.1 µM
same,GI50,[18],1.32 µM
same,TGI,[18],3.12 µM
same,CC50,[18]; [30],7.37 µM
same,GI50,[19],1.1 µM
same,TGI,[19],3.55 µM
same,CC50,[19]; [30],12.9 µM
same,GI50,[20],1.91 µM
same,TGI,[20],6.73 µM
same,CC50,[20]; [30],36.3 µM
same,GI50,[21],2.57 µM
same,TGI,[21],17.9 µM
same,CC50,[21]; [30],> 100 µM
same,GI50,[22],1.67 µM
same,TGI,[22],3.22 µM
same,CC50,[22]; [30],6.18 µM
same,K,Albumin [23],3.2 ×10⁴ /mol
same,K,Albumin [24],5.68 ×10³ /mol
same,K,Albumin [25],2.44 ×10³ /mol
same,growth inhibition (GI),MCF7 [26],89.71%
same,growth inhibition (GI),[27],78.07%
same,growth inhibition (GI),NCI-H460,99.46%
same,growth inhibition (GI),[28],76.05%
same,growth inhibition (GI),[29],81.93%
